Measured values taken from US4983613A, “Isoquinoline acetic acids and acetyl carbamates useful as aldose reductase inhibitors” (American Home Products Corporation, priority 1989, dated 1991).
Blank lines part the entries; values can stand above or below the compound they belong to.

Experiments:
aldose reductase = target: T1, aldose reductase (Bos taurus, UniProt P16116); assay: in vitro inhibition of aldose reductase (modified Hayman and Kinoshita procedure, enzyme from bovine lens); assay type: biochemical; conditions: for inhibition at 10 µM: 10^-5 M; for inhibition at 1 µM: 10^-6 M; for inhibition at 0.04 µM: 4 × 10^-8 M; for inhibition at 0.1 µM: 10^-7 M
T1 construct: in the preparation of the enzyme from bovine lens; from tissue; host or cells: bovine lens
Protocol: (c) The polyol determination was performed by a modification of the procedure of M. Kraml and L. Cosyns, Clin. Biochem., 2,373 (1969). Only two minor reagent changes were made: (a) The rinsing mixture was an aqueous 5% (w/v) trichloroacetic acid solution and (b) the stock solution was prepared by dissolving 25 mg of dulcitol in 100 ml of an aqueous trichloroacetic acid solution. [N.B.: For each experiment the average value found in the tissue from rats fed the glucose diet was subtracted from the individual values found in the corresponding tissue in galactose-fed rats to obtain the amount of polyol accumulated.] The aldose reductase inhibiting effects of the compounds of formula (I) were also tested by employing an in vitro testing procedure similar to that described by S. Hayman and J. H. Kinoshita, J. Biol. Chem., 240,877 (1965). In the present case the procedure of Hayman and Kinoshita was modified in that the final chromatography step was omitted in the preparation of the enzyme from bovine lens. […] The figures under L and N represent the percentage decrease of dulcitol accumulation in the tissues of the lens and sciatic nerve, respectively, for treated rats as compared to untreated rats.

[1] = system: dulcitol accumulation in sciatic nerve; assay: in vivo lowering of dulcitol accumulation in sciatic nerve of galactosemic rats; parameters: species or system rat (Sprague-Dawley); conditions: in diet, four days
Source text: (§1) The aldose reductase inhibiting property of the compounds of this invention and the utilization of the compounds in preventing, diminishing and alleviating diabetic complications are demonstrable in experiments using galactosemic rats, see Dvornik et al., Science, 182, 1146 (1973). Such experiments are exemplified hereinbelow after the listing of the following general comments pertaining to these experiments:
(§2) (a) Four or more groups of six male rats, 50-70 g, Sprague-Dawley strain, were used. The first group, the control group, was fed a mixture of laboratory chow (Rodent Laboratory Chow, Purina) and glucose at 20% (w/w %) concentration. The untreated galactosemic group was fed a similar diet in which galactose is substituted for glucose. The third group was fed a diet prepared by mixing a given amount of the test compound with the galactose containing diet. The concentration of the galactose in the diet of the treated groups was the same as that for the untreated galactosemic group.
(§3) (b) After four days, the animals were killed by euthanization. The lenses were removed from the eyes and weighed. The sciatic nerves were dissected as completely as possible and weighed. Both tissues when frozen can be kept up to two weeks before being analyzed for dulcitol.
(c) The polyol determination was performed by a modification of the procedure of M. Kraml and L. Cosyns, Clin. Biochem., 2,373 (1969). Only two minor reagent changes were made: (a) The rinsing mixture was an aqueous 5% (w/v) trichloroacetic acid solution and (b) the stock solution was prepared by dissolving 25 mg of dulcitol in 100 ml of an aqueous trichloroacetic acid solution. [N.B.: For each experiment the average value found in the tissue from rats fed the glucose diet was subtracted from the individual values found in the corresponding tissue in galactose-fed rats to obtain the amount of polyol accumulated.] The aldose reductase inhibiting effects of the compounds of formula (I) were also tested by employing an in vitro testing procedure similar to that described by S. Hayman and J. H. Kinoshita, J. Biol. Chem., 240,877 (1965). In the present case the procedure of Hayman and Kinoshita was modified in that the final chromatography step was omitted in the preparation of the enzyme from bovine lens.
The figures under L and N represent the percentage decrease of dulcitol accumulation in the tissues of the lens and sciatic nerve, respectively, for treated rats as compared to untreated rats.

[2] = system: dulcitol accumulation in lens; assay: in vivo lowering of dulcitol accumulation in lens of galactosemic rats; parameters: species or system rat (Sprague-Dawley); conditions: in diet, four days
Source text: as §1, §2, §3
(c) The polyol determination was performed by a modification of the procedure of M. Kraml and L. Cosyns, Clin. Biochem., 2,373 (1969). Only two minor reagent changes were made: (a) The rinsing mixture was an aqueous 5% (w/v) trichloroacetic acid solution and (b) the stock solution was prepared by dissolving 25 mg of dulcitol in 100 ml of an aqueous trichloroacetic acid solution. [N.B.: For each experiment the average value found in the tissue from rats fed the glucose diet was subtracted from the individual values found in the corresponding tissue in galactose-fed rats to obtain the amount of polyol accumulated.] […]

inhibition at 10 µM (aldose reductase): 50%
inhibition at 1 µM (aldose reductase): 17%
Structure (SMILES): COC(=O)NC(=O)CC1C(=O)N(C)C(=O)c2cc(Cl)ccc21 (stereo not shown) [7Cl, CH3, NHCO2 CH3, [(7-chloro-1,2,3,4-tetrahydro-2-methyl-1,3-dioxo-4-isoquinolinyl)acetyl]carbamic acid methyl ester]
% Lowering Ducitol Accumulation In vivo, Nerve ([1]; 24.3 mg/kg): 28%

inhibition at 10 µM (aldose reductase): 64.5%
inhibition at 1 µM (aldose reductase): 26.6%
Structure (SMILES): COC(=O)NC(=O)CC1C(=O)N(C)C(=O)c2ccc(Cl)cc21 (stereo not shown) [6Cl, H, CH3, NHCO2 CH3, [(6-chloro-1,2,3,4-tetrahydro-2-methyl-1,3-dioxo-4-isoquinolinyl)acetyl]carbamic acid methyl ester]
% Lowering Ducitol Accumulation In vivo, Lens ([2]; 25 mg/kg): 24%
% Lowering Ducitol Accumulation In vivo, Lens ([2]; 86.1 mg/kg): 55%
% Lowering Ducitol Accumulation In vivo, Nerve ([1]; 25 mg/kg): 53%
% Lowering Ducitol Accumulation In vivo, Nerve ([1]; 86.1 mg/kg): 81%

Second part, the compound before the results:

Structure (SMILES): COC(=O)NC(=O)CC1C(=O)N(Cc2ccc(Br)cc2F)C(=O)c2ccc(F)cc21 (stereo not shown) [[[2-[(4-Bromo-2-fluorophenyl)methyl]-6-fluoro-1,2,3,4-tetrahydro-1,3-dioxo-4-isoquinolinyl]acetyl]carbamic Acid Methyl Ester]
inhibition at 10 µM (aldose reductase): 55%
inhibition at 1 µM (aldose reductase): 18%
% Lowering Ducitol Accumulation In vivo, Nerve ([1]; 26 mg/kg): 78%

Structure (SMILES): O=C(O)CC1C(=O)N(Cc2ccc(Br)cc2F)C(=O)c2ccccc21 (stereo not shown) [2-[(4-Bromo-2-fluorophenyl)methyl]-1,2,3,4-tetrahydro-1,3-dioxo-4-isoquinolineacetic Acid]
inhibition at 0.04 µM (aldose reductase): 50%
inhibition at 10 µM (aldose reductase): 94%
inhibition at 1 µM (aldose reductase): 91%
inhibition at 0.1 µM (aldose reductase): 88%

Structure (SMILES): COC(=O)NC(=O)CC1C(=O)N(C)C(=O)c2ccccc21 (stereo not shown) [H, H, CH3, NHCO2 CH3, [(1,2,3,4-Tetrahydro-2-methyl-1,3-dioxo-4-isoquinolinyl)acetyl]carbamic Acid Methyl Ester]
% Lowering Ducitol Accumulation In vivo, Lens ([2]; 85.0 mg/kg): 37.2%
inhibition at 10 µM (aldose reductase): 61%
% Inhibition in vitro (aldose reductase; 10^- M (exponent not given)): 11%
% Lowering Ducitol Accumulation In vivo, Nerve ([1]; 26.8 mg/kg): 21.2%
% Lowering Ducitol Accumulation In vivo, Nerve ([1]; 85.0 mg/kg): 58.6%

Structure (SMILES): CCOC(=O)NC(=O)CC1C(=O)N(C)C(=O)c2ccc(Cl)cc21 (stereo not shown) [-6Cl, H, CH3, NHCO2 C2 H5, [(6-chloro-1,2,3,4-tetrahydro-2-methyl-1,3-dioxo-4-isoquinolinyl)acetyl]carbamic acid ethyl ester]
inhibition at 10 µM (aldose reductase): 14.5%
% Lowering Ducitol Accumulation In vivo, Nerve ([1]; 24.5 mg/kg): 34%

Structure (SMILES): O=C(O)CC1C(=O)N(Cc2ccc(Br)cc2F)C(=O)c2ccc(F)cc21 (stereo not shown) [2-[(4-Bromo-2-fluorophenyl)methyl]-6-fluoro-1,2,3,4-tetrahydro-1,3-dioxo-4-isoquinolineacetic Acid]
inhibition at 0.04 µM (aldose reductase): 80%
inhibition at 10 µM (aldose reductase): 96%
inhibition at 1 µM (aldose reductase): 91%
inhibition at 0.1 µM (aldose reductase): 86%
% Lowering Ducitol Accumulation In vivo, Nerve ([1]; 25 mg/kg): 47%
